Publication PMC12606464, “Investigating NFE2L1 activators for targeted protein aggregate clearance: a follow-up study” (RSC Medicinal Chemistry, 2025)

System: chymotrypsin-like activity of the 26S proteasome
Experiment: Proteasome activity assay in HEK293 cell lysates
Type: cell-based, human
Settings: 7.5 μM, 16 h; for Proteasome chymotrypsin-like activity, geometric mean (treatment): HEK293 lysates, 37 °C, DMSO control = 1; for Proteasome chymotrypsin-like activity, geometric mean of ratios: treatment/control, ratio paired t test, HEK293
Protocol: Building on previous findings, we investigated how selected RUN compounds influence proteasomal function itself. Specifically, we examined the chymotrypsin-like activity of the 26S proteasome following a 16 hour treatment with 7.5 μM RUN compounds in the HEK293 cell line. […] In addition, two other cell lines, MCF7 and SH-SY5Y, were measured (see the SI, Fig. S6).
Fig. 3 (A) HEK293 cells were treated with RUN compounds at a concentration of 7.5 μM for 16 hours. DMSO was used as a vehicle control. Proteasome chymotrypsin-like activity was measured in cell lysates at 37 °C. Data came from three biological replicates (n = 3). Statistical analysis was done using ratio paired t-tests corrected for multiple comparisons with Holm–Šídák's method (α = 0.05). *p < 0.05. Detailed results of the analysis are shown in SI Table S7. (B) RUN-89 protects against polyQ-mediated toxicity in an NFE2L1-dependent manner. HCT116 parental cells (WT) and two independent DDI2 knockout clones (KO 04 and KO 11), in which NFE2L1 activation is impaired, were transiently transfected with plasmids encoding non-aggregating EGFP-HttQ23 or aggregation-prone EGFP-HttQ74. Cells were treated with 1 or 3 μM RUN-89 for 48 hours, and viability was measured using the alamarBlue assay. […] Data are shown as the Geomean ± GeoSD from four independent biological replicates (n = 4). Statistical analysis was performed on log2-transformed values using two-way repeated-measures ANOVA followed by Šídak's multiple comparison test. (C right) Parental SH-SY5Y cells (without α-synuclein expression) were treated in the same manner. (C left) The protective effect of RUN compounds was assessed by rotenone-induced α-synuclein proteotoxicity in SH-SY5Y cells, which mimics the PD-like phenotype. Cells were pre-treated with increasing concentrations of RUN compounds (0.312, 0.625, 1.25, and 2.5 μM) for 4 hours and then rotenone (1.125 μM) treatment was done for 24 hours. […]
2.7 Proteasome activity assay
The corresponding cell lines (HEK293, MCF7, or SH-SY5Y) were seeded into 6-well plates and allowed to adhere overnight under standard culture conditions. On the following day, HEK293 cells were treated with 7.5 µM RUN compounds, whereas MCF7 and SH-SY5Y cells were treated with 5 µM RUN compounds, for 16 hours each. After treatment, cells were harvested, resuspended in lysis buffer (50 mM HEPES, pH 7.5; 5 mM EDTA; 150 mM NaCl; 2 mM ATP; 1% Triton), and centrifuged at 15,000 rpm for 15 minutes at 4 °C. The resulting lysates (25 µg total protein) were incubated with 200 µM of the fluorogenic substrate Suc-Leu-Leu-Val-Tyr-AMC (Bachem, I1395) in assay buffer (50 mM Tris, pH 8.0; 10 mM MgCl₂; 1 mM ATP; 1 mM DTT) at 37 °C. Free AMC release was detected by measuring fluorescence at 360/460 nm. […]
HEK293 cells were seeded in 6-well plates and incubated for 24 hours before being transfected with a plasmid containing the CMV-XBP-Gluc reporter using Lipofectamine 2000.(4) After 6 hours, the transfected cells were subsequently transferred to 384-well plates, stabilized overnight, and treated with the proteasome inhibitor and ER stress inducer MG132 and/or various concentrations of RUN compounds (1, 5, and 10 µM) or vehicle (DMSO) for 16 hours. Luciferase activity was normalized to cell viability, which was assessed using the alamarBlue assay. The results are expressed as the fold change compared with the DMSO control, with the experiment conducted in biological triplicate. […]

Row | SMILES | Proteasome chymotrypsin-like activity, geometric mean (treatment) | Proteasome chymotrypsin-like activity, geometric mean of ratios
1 | COc1ccc(/C=C2\CC(N)C/C(=C\c3ccc(OC)c(OC)c3)C2=O)cc1OC (centres unmarked) [RUN-81] | 1.21 | 1.21
2 | COc1ccc(/C=C2\CC(NC(=O)C3CCCC3)C/C(=C\c3ccc(OC)c(OC)c3)C2=O)cc1OC (centres unmarked) [RUN-89] |  | 1.36
3 | COc1ccc(/C=C2\CC(NC(=O)c3ccccn3)C/C(=C\c3ccc(OC)c(OC)c3)C2=O)cc1OC (centres unmarked) [RUN-94] | 1.21 | 1.21
